Test results taken from patent US9018242B2, “Salt form of tyrosine kinase inhibitor” (Jiangsu Simcere Pharmaceutical R&D Co., Ltd, priority 2011, dated 2015).
Converted amounts (≈) assume the structure as drawn.

Columns and labels:
[1] = Hygroscopicity measurement (weight gain); assay type: physicochemical; conditions: 25±1° C., relative humidity 80±2%, 24 hours
Description: The method for measuring the hygroscopicity may include: placing a certain amount of a sample to be tested into a precisely weighed glass weighing bottle (m1) with a plug and precisely weighing (m2); placing the opened weighing bottle into a thermostatic dryer (with saturated ammonium sulfate solution placed at the bottom, with a relative humidity of 80±2%) at 25±1° C. for 24 hours; covering the weighing bottle with the plug and precisely weighing (m3), and calculating the percent of weight gain of the sample to be tested according to the following equation: […]
The measurement method includes: placing a certain amount of sample to be tested into a precisely weighed glass weighing bottle (m1) with a plug and precisely weighing (m2); placing the opened weighing bottle in a thermostated dryer (with saturated ammonium sulfate solution placed at the bottom, with a relative humidity of 80±2%) at 25±1° C. for 24 hours; covering the weighing bottle with the plug and precisely weighing (m3).
Characterization of the hygroscopicity and definition of the hygroscopic weight gain:
Deliquescence: sufficient moisture was absorbed to form liquid;
Slight hygroscopicity: hygroscopic weight gain was less than 2% and not less than 0.2%: […]

[2] = Plasma exposure (AUC) in rats after gavage administration; assay type: in vivo; conditions: rat, po, male SD rats, 10 mg/kg (based on pharmaceutically active compound), salts dissolved in pure water, active compound as suspension in 0.5% CMC, up to 24 h
Description: Laboratory animal: male SD rats
Dosage: 10 mg/kg (based on pharmaceutically active compound)
Formulation for salts: dissolving in pure water
(§1) Formulation for pharmaceutically active compound: suspension in CMC (carboxymethylcellulose), 0.5%
Animal Grouping and Testing Course:
Each group includes three male rats having a weight of 180 to 210 g. Gavage administration was performed; the blood was collected at point of time: 5 min, 15 min, 30 min, 45 min, 1 h, 2 h, 4 h, 6 h, 10 h and 24 h; about 250 μl blood was collected from orbital venous plexus into a heparin-containing tube, centrifuged, and 100 μl plasma was used for LC-MS analysis.

[3] = tested on: human colon cancer HT-29 xenografts; assay: Therapeutic effect on human colon cancer HT-29 xenografts in nude mice; assay type: in vivo, BALB/cA-nude mice; conditions: 40 mg/kg (based on pharmaceutically active compound), gavage for 21 days, L-malate in pure water, active compound as suspension in 0.5% CMC
Description: Laboratory animal: BALB/cA-nude mice, 6-7 weeks, ♀
Dosage: 40 mg/kg (based on pharmaceutically active compound)
Formulation for L-malate: dissolving in pure water
as §1
Nude mice were subcutaneously inoculated with human colon cancer HT-29 cells. After the tumor grew to a size of 150 to 250 mm^3, the animals were randomly divided into three groups (d0). The animals were continuously administered through gavage for 21 days, and the tumor volume was measured 2 to 3 times per week. The tumor volume (V) was calculated according to the equation: V=1/2×a×b^2, where a and b represent length and width respectively.
The relative proliferation of tumor=T/C(%)=(T−T0)/(C−C0)×100, where T and C are the tumor volumes at the end of experiment, T0 and C0 are the tumor volumes at the start of experiment; the tumor inhibition rate=1−T/C(%).

[4] = Solubility in water by HPLC; assay type: physicochemical; conditions: thermodynamic from solid; purified water, 25° C.
Description: Liquid chromatograph: Agilent 1200 HPLC system (diode array detector), ChemStation
Mobile phase: acetonitrile/water
Detection wavelength: 264 nm
About 100 mg sample to be tested was precisely weighed and placed into a 100 ml graduated flask at 25° C.; an appropriate amount of solvent [acetonitrile/water (80:20)] was added to dissolve the sample under ultrasonic sound, and the solution was diluted to a given scale and shaken up; 10 μl resulting solution was precisely measured and loaded into the liquid chromatograph, the chromatogram was recorded, and the peak area Scontrol was measured.
10 ml purified water was measured and placed into a 25 ml Kjeldahl flask. The sample to be tested was gradually added at 25° C. until an insoluble solid appeared in the solution. The solution was treated under ultrasonic sound for 30 min and the insoluble solid was filtered off. 10 μl filtrate was precisely weighed and loaded into the liquid chromatograph, the chromatogram was recorded, and the peak area Stest was measured.

In the case of `CCN(CC)CCNC(=O)c1c(C)[nH]c2c1CCC/C2=C1/C(=O)Nc2ccc(F)cc21` [Pharmaceutically active compound, (Z)—N-[2-(diethylamino)ethyl]-2-methyl-7-(1,2-dihydro-5-fluoro-2-oxo-3H-indol-3-ylidene)-4,5,6,7-tetrahydro-1H-indol-3-carboxamide], the Hygroscopicity [1] is reported as “Almost no hygroscopicity”, the AUC(0-t) [2] is reported as 128 ng·h/mL and the “Tumor Inhibition Rate” value [3] is reported as 40%. For the same molecule, the solubility at 30 min [4] was 20 µg/mL (≈ 47.1 µM).
